Values of other authors as cited in patent publication US7993390B2, “Implantable or insertable medical device resistant to microbial growth and biofilm formation” (Boston Scientific Scimed, Inc., priority 2002, dated 2011).

Tested on: most gram positive and gram negative aerobic and anaerobic bacteria, some yeast and fungi
Settings: most organisms tested

Oc1cc(Cl)ccc1Oc1ccc(Cl)cc1Cl [triclosan]
MIC: < 0.3 ppm
